Literature values in paper PMC10969742, “A Phase I Study of the Oral Dual-Acting Pan-PI3K/mTOR Inhibitor Bimiralisib in Patients with Advanced Solid Tumors” (Cancers, 2024).

Parameters: method as in PMID 28490463
Settings: intermittent versus daily dosing; cited from earlier work

SMILES: Nc1nc2cc(-c3ccc4ncc(C(=O)N5CCOCC5)n4c3)ccc2o1 [TAK-117]
- Safety profile of intermittent dosing: acceptable safety profile
